Test results from BigSolDB 2.1.

O=C(O)CCP(=O)([O-])c1ccccc1.[Na+]
solubility (mole fraction)
Conditions | 293.15 K | 298.15 K | 303.15 K | 308.15 K | 313.15 K | 318.15 K | 323.15 K | 328.15 K | 333.15 K | 343.15 K
in acetic acid | 0.0169 | 0.0205 | 0.0225 | 0.0264 | 0.0283 | 0.0312 | 0.0357 | 0.0404 | 0.0471 | 0.062
in acetone | 7e-05 | 0.00011 | 0.00016 | 0.00024 | 0.00035 | 0.00051 | 0.00075 | – | – | –
in ethanol | 0.00065 | 0.00076 | 0.00095 | 0.00106 | 0.00122 | 0.00166 | 0.00199 | 0.00223 | 0.00273 | 0.00413
in ethyl acetate | 0.00039 | 0.00051 | 0.000685 | 0.00096 | 0.00117 | 0.00165 | 0.00204 | 0.00285 | 0.00384 | 0.00602
in methanol | 0.00612 | 0.00671 | 0.00719 | 0.00779 | 0.00831 | 0.009 | 0.00993 | – | – | –
in water | 0.0196 | 0.0201 | 0.0214 | 0.0222 | 0.0232 | 0.0248 | 0.0263 | 0.0277 | 0.0295 | 0.0316

O=C([O-])CCP(=O)([O-])c1ccccc1.[Na+].[Na+]
solubility (mole fraction)
Conditions | 293.15 K | 298.15 K | 303.15 K | 308.15 K | 313.15 K | 318.15 K | 323.15 K | 328.15 K | 333.15 K | 343.15 K
in acetic acid | 0.000543 | 0.000554 | 0.000569 | 0.000581 | 0.000603 | 0.000626 | 0.000644 | 0.000663 | 0.000703 | 0.000742
in acetone | 3.66e-05 | 3.89e-05 | 4.13e-05 | 4.39e-05 | 4.62e-05 | 4.83e-05 | 5.24e-05 | – | – | –
in ethanol | 7.03e-05 | 9.7e-05 | 0.000138 | 0.000197 | 0.000264 | 0.000352 | 0.000505 | 0.000728 | 0.000926 | 0.00164
in methanol | 2.2e-05 | 2.26e-05 | 2.28e-05 | 2.3e-05 | 2.34e-05 | 2.4e-05 | 2.44e-05 | – | – | –
in water | 0.000904 | 0.000906 | 0.000908 | 0.000909 | 0.000911 | 0.000912 | 0.000913 | 0.000915 | 0.000916 | 0.000918
